From patent publication US7273880B2, “Selective NPY (Y5) antagonists” (H. Lunbeck A/S, priority 1999, dated 2007)
Structures can show the parent of a compound that is named as a salt.

Experiments:
[1] = molecular target: T1, human Y5 receptor (hNPY-5) (Homo sapiens, UniProt Q15761); test: Radioligand binding to membranes, cloned human Y5 receptor; conditions: cloned human NPY Y5 receptor, radioligand competition binding; Tables 1-3; read-out: Ki, nM hNPY-5
T1 construct: expressed in transfected cells; host or cells: mouse fibroblast LM(tk-) cells, e.g. L-hY5-7 (ATCC CRL-11995)
T1 sequence (Q15761 1-445): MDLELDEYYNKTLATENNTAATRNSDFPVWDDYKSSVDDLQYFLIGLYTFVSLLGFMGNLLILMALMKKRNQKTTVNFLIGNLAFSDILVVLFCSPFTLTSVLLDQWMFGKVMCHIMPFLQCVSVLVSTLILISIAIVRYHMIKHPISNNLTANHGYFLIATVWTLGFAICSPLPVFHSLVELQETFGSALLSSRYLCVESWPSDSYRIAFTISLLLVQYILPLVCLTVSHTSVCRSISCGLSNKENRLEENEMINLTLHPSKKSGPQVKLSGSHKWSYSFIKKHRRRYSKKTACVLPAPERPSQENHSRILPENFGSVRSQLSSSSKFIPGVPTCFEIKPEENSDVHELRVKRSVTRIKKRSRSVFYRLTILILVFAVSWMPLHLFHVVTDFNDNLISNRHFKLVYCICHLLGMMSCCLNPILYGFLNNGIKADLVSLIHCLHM
Experimental: Binding of the compounds of the present invention to human Y1, Y2, Y4, and Y5 receptors was evaluated using stably transfected 293 or LM(tk-) cells as described above. Stably transfected cell lines which may be used for binding assays include, for example, for the human Y1 receptor, 293-hY1-5 (deposited Jun. 4, 1996, under ATCC Accession No. CRL-12121), for the human Y2 receptor, 293-hY2-10 (deposited Jan. 27, 1994, under ATCC Accession No. CRL-11537), for the human Y4 receptor, L-hY4-3 (deposited Jan. 11, 1995, under ATCC Accession No. CRL-11779), and for human Y5 receptor, L-hY5-7 (deposited Nov. 15, 1995, under ATCC Accession No. CRL-11995). These cell lines were deposited with the American Type Culture Collection (ATCC), 10801 University Blvd., Manassas, Va. 20110-2209, U.S.A. under the provisions of the Budapest Treaty for the International Recognition of the Deposit of Microorganisms for the Purposes of Patent Procedure.
Membranes were harvested from COS-7 cells 48 hours after transient transfection. Adherent cells were washed twice in ice-cold phosphate buffered saline (138 mM NaCl, 8.1 mM Na2HPO4, 2.5 mM KCl, 1.2 mM KH2PO4, 0.9 mM CaCl2, 0.5 mM MgCl2, pH 7.4) and lysed by sonication in ice-cold sonication buffer (20 mM Tris-HCl, 5 mM EDTA, pH 7.7). Large particles and debris were cleared by low speed centrifugation (200×g, 5 min, 4° C.). Membranes were collected from the supernatant fraction by centrifugation (32,000×g, 18 min, 4° C.), washed with ice-cold hypotonic buffer, and collected again by centrifugation (32,000×g, 18 min, 4° C.). The final membrane pellet was resuspended by sonication into a small volume of ice-cold binding buffer (˜1 ml for every 5 plates: 10 mM NaCl, 20 mM HEPES, 0.22 mM KH2PO4, 1.26 mM CaCl2, 0.81 mM MgSO4, pH 7.4). Protein concentration was measured by the Bradford method (Bradford, 1976) using Bio-Rad Reagent, with bovine serum albumin as a standard. Membranes were held on ice for up to one hour and used fresh, or flash-frozen and stored in liquid nitrogen.
Membranes were prepared similarly from 293, LM(tk-), and NIH-3T3 cells. To prepare membranes from baculovirus infected cells, 2×10^7 Sf21 cells were grown in 150 mm tissue culture dishes and infected with a high-titer stock of hY5BB3. Cells were incubated for 2-4 days at 27° C., no CO2 before harvesting and membrane preparation as described above.
Membrane suspensions were diluted in binding buffer supplemented with 0.1% bovine serum albumin to yield an optimal membrane protein concentration so that ^125I-PYY (or alternative radioligand such as ^125I-NPY, ^125I-PYY3-36, or ^125I-[Leu^31Pro^34]PYY) bound by membranes in the assay was less than 10% of ^125I-PYY (or alternative radioligand) delivered to the sample (100,000 dpm/sample=0.08 nM for competition binding assays). ^125I-PYY (or alternative radioligand) and peptide competitors were also diluted to desired concentrations in supplemented binding buffer. Individual samples were then prepared in 96-well polypropylene microtiter plates by mixing 125I-PYY (25 μL) (or alternative radioligand), competing peptides or supplemented binding buffer (25 μL), and finally, membrane suspensions (200 μL). Samples were incubated in a 30° C. water bath with constant shaking for 120 min. Incubations were terminated by filtration over Whatman GF/C filters (pre-coated with 1% polyethyleneimine and air-dried before use), followed by washing with 5 mL of ice-cold binding buffer. Filter-trapped membranes were impregnated with MeltiLex solid scintillant (Wallac, Turku, Finland) and counted for ^125I in a Wallac Beta-Plate Reader. Alternatively, incubations were carried out in GF/C filter plates (pre-coated with 1% polyethyleneimine and air-dried before use), followed by vacuum filtration and three washes of 300 μL of ice-cold binding buffer. 50 μL of UltimaGold (Packard) scintillant were added and counted for ^125I in a Wallac MicroBeta Trilux. […]

SMILES | melting point [°C] | Ki [1] [nM]
COCCN(C=O)[C@H]1CC[C@H](CNc2nc3c(s2)CCOc2ccccc2-3)CC1 (as salt: HCl) [Example 86, N-{4-[(4,5-dihydrobenzo[2,3]oxepino[4,5-d][1,3]thiazol-2-ylamino)methyl]cyclohexyl}-N-(2-methoxyethyl)formamide] | 164 to 166 | –
CCCN(C=O)[C@H]1CC[C@H](CNc2nc3c(s2)CCOc2ccccc2-3)CC1 (as salt: HCl) [Example 88, N-{4-[(4,5-Dihydrobenzo[2,3]oxepino[4,5-d][1,3]-thiazol-2-ylamino)methyl]cyclohexyl}-N-propyl-formamide] | 195 to 197 | –
COP(=O)(N[C@H]1CC[C@H](CNc2nc3c(s2)CCCc2ccc(F)cc2-3)CC1)OC [Example 67, trans-N2-(4-Dimethylphosphonylamino)cyclohexylmethyl-9-fluoro-5,6-dihydro-4H-benzo[6,7]cyclohepta[d][1,3]-thiazol-2-amine] | – | 5.5
CS(=O)(=O)NCC1CCC(Nc2nc3c(s2)COc2ccccc2-3)CC1 (stereo not drawn) [Example 70, 2-(4-Methylsulfonylaminomethyl)cyclohexylamino-4H-chromeno[4,3-d]thiazole] | – | 21
CS(=O)(=O)NC[C@H]1CC[C@H](Nc2nc(-c3ccccc3O)cs2)CC1 [Example 95, trans-4-(2-Hydroxy)phenyl-2-(4-methylsulfonylamino-methyl)-cyclohexylaminothiazole] | – | 106
CC(C)(C)OC(=O)NC[C@H]1CC[C@H](Nc2nc3c(s2)CCSc2ccccc2-3)CC1 [Example 100, tert-Butyl N-{[4-(4,5-Dihydrobenzo[2,3]thiepino[4,5-d][1,3]thiazol-2-ylamino)cyclohexyl]methyl}carbamate] | – | 24
CCCN(C=O)[C@H]1CC[C@H](CNc2nc3c(s2)CCOc2ccccc2-3)CC1 [Example 88, N-{4-[(4,5-Dihydrobenzo[2,3]oxepino[4,5-d][1,3]-thiazol-2-ylamino)methyl]cyclohexyl}-N-propyl-formamide] | – | 36
COCC(=O)N[C@H]1CC[C@H](CNc2nc3c(s2)CCOc2ccccc2-3)CC1 [Example 84, N1-{4-[(4,5-dihydrobenzo[2,3]oxepino[4,5-d][1,3]thiazol-2-ylamino)methyl]cyclohexyl}-2-methoxyacetamide] | – | 40
COc1ccccc1-c1csc(N[C@H]2CC[C@H](CNS(C)(=O)=O)CC2)n1 [Example 91, trans-4-(2-Methoxy)phenyl-2-(4-methylsulfonylamino-methyl)-cyclohexylamino-1,3-thiazole hydrochloride] | – | 12.3

The next lines start with the values.

melting point [°C] | Ki [1] [nM] | SMILES
55 to 57 | – | O=S(=O)(NCCCCCNc1nc2c(s1)CCCc1ccc(F)cc1-2)c1ccccc1F (as salt: HCl) [Example 3, 1-Aza-9-fluoro-2-(5-(2-fluorophenyl)sulfonylamino)-pentylamino-4,5-dihydro-3-thia-benzo[e]azulene]
165 to 167 | – | O=S(=O)(N[C@H]1CC[C@H](Nc2nc3c(s2)CCCc2ccc(F)cc2-3)CC1)c1cccnc1 (as salt: salt) [Example 54, trans-1-Aza-9-fluoro-4,5-dihydro-2-(4-(3-pyridyl-sulfonylamino)cyclohexyl)amino-3-thia-benzo[e]azulene]
140 to 141 | – | O=S(=O)(CC(F)(F)F)NCCCCNc1nc2c(s1)CCCc1ccc(F)cc1-2 (as salt: TFA) [Example 39, 1-Aza-9-fluoro-4,5-dihydro-2-(4-(2,2,2-trifluoroethyl)-sulfonylamino)butylamino-3-thia-benzo[e]azulene]
127 to 129 | – | O=S(=O)(NC[C@H]1CC[C@H](Nc2nc3c(s2)CCCc2ccc(F)cc2-3)CC1)c1cccnc1 (as salt: salt) [Example 59, trans-1-Aza-9-fluoro-4,5-dihydro-2-(4-(3-pyridyl)-sulfonylaminomethyl)cyclohexylamino-3-thia-benzo[e]-azulene]
106 to 107 | – | CC(C)N(C=O)C[C@H]1CC[C@H](Nc2nc3c(s2)CCCc2ccc(F)cc2-3)CC1 (as salt: salt) [Example 83, trans-1-Aza-9-fluoro-4,5-dihydro-2-(4-(N-isopropyl-formamido)methyl)cyclohexylamino-3-thia-benzo[e]-azulene]
94 to 97 | – | COc1ccc2c(c1)CCCc1sc(NC[C@H]3CC[C@H](NS(C)(=O)=O)CC3)nc1-2 (as salt: salt) [Example 71, trans-1-Aza-4,5-dihydro-8-methoxy-2-(4-methylsulfonyl-amino)cyclohexylmethylamino-3-thia-benzo[e]azulene]
130 to 132 | – | COc1ccc2c(c1)CCCc1sc(N[C@H]3CC[C@H](CNS(=O)(=O)N4CCOCC4)CC3)nc1-2 (as salt: hydrochloride) [Example 78, trans-N2-(4-(1-Morpholinylsulfonylaminomethyl)-cyclohexyl-8-methoxy-5,6-dihydro-4H-benzo[6,7]-cyclohepta[d][1,3]thiazol-2-amine hydrochloride]
200 to 215 | – | COc1ccc2c(c1)-c1nc(NC[C@H]3CC[C@H](NS(C)(=O)=O)CC3)sc1CCO2 (as salt: HCl) [Example 63, trans-1-Aza-4,5-dihydro-9-methoxy-2-{4-methylsulfonyl-amino}cyclohexylmethylamino-6-oxa-3-thia-benzo[e]azulene]
84 to 86 | – | O=S(=O)(NCCCCCNc1nc2c(s1)CCCc1ccc(F)cc1-2)c1cccnc1 (as salt: salt) [Example 55, 1-Aza-9-fluoro-4,5-dihydro-2-(5-(3-pyridyl)sulfonyl-amino)pentylamino-3-thia-benzo[e]azulene]
101 to 103 | – | O=S(=O)(NCCCCNc1nc2c(s1)CCCc1ccc(F)cc1-2)c1cccnc1 (as salt: salt) [Example 56, 1-Aza-9-fluoro-4,5-dihydro-2-(4-(3-pyridyl)sulfonyl-amino)butylamino-3-thia-benzo[e]azulene]
– | 26 | O=S(=O)(NCCCCNc1nc2c(s1)CCCc1ccc(F)cc1-2)c1cccnc1 [Example 56, 1-Aza-9-fluoro-4,5-dihydro-2-(4-(3-pyridyl)sulfonyl-amino)butylamino-3-thia-benzo[e]azulene]
– | 2.5 | COc1ccc2c(c1)CCCc1sc(NC[C@H]3CC[C@H](NS(C)(=O)=O)CC3)nc1-2 [Example 71, trans-1-Aza-4,5-dihydro-8-methoxy-2-(4-methylsulfonyl-amino)cyclohexylmethylamino-3-thia-benzo[e]azulene]
